In BindingDB's records for patent USRE47740 (Syntrix Biosystems Inc., 2019):
pIC50: −log10 of the molar value.

Target: T1, C-X-C chemokine receptor type 2 (Homo sapiens, UniProt P25025)
T1 sequence (P25025 whole entry): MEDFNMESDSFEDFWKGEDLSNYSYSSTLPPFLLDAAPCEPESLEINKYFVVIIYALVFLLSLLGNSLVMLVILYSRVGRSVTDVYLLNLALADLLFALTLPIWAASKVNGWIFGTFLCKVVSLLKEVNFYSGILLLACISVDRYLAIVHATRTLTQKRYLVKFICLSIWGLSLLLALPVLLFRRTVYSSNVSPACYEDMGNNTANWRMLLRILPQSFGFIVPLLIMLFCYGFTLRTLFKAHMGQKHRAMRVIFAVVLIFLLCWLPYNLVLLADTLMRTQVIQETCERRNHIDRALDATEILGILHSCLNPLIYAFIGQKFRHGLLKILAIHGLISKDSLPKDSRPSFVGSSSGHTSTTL
Assay: In Vitro Inhibition of Intracellular Calcium Release
Method: Briefly, human neutrophils were suspended in HBSS− (without Ca2+ and Mg2+) containing 10 mM HEPES and FLIPR Calcium 3 dye (3.1×10^7 cells in total volume 1.7 mL). Cells were aliquoted (200 μL of the cell suspension per tube, 8 tubes total) and 2 μL of compound 9 (with appropriate dilutions) were added to each of 6 tubes. The tested concentrations of compound 9 were 156 nM, 312 nM, 625 nM, 1250 nM, 2500 nM and 5000 nM. As controls, 2 μL of DMSO (1% final concentration) were added to 2 other tubes. Cells were incubated for 30 min at 37° C. […] The cell suspension was aliquoted into a 96-well Reading Plate (Corning) in a volume of 90 μL (10^5 cells/well). […] After 15 sec of reading the basal level of fluorescence by FlexStation II, 10 μL of GROα or HBSS− were automatically transferred from the Compound Plate into the Reading Plate (final concentration of GROα was 25 nM). Changes in fluorescence were monitored (λex=485 nm, λem=525 nm) every 5 s for 240 to 500 s at room temperature.The maximum change in fluorescence, expressed in arbitrary units over baseline (Max-Min), was used to determine the GROα response. The effect of each compound on the GROα response was normalized and expressed as a percent of the DMSO control, which was designated as 100% response. […]

pIC50: 5.82
Compound: CC1(C)OB(c2ccccc2CNc2ccc(C(=O)Nc3ccc(F)cc3)cn2)OC1(C)C [USRE47740, Compound 7]
